Measured values published in patent US20260007729A1, “IM[…] VIRAL […](S)” (IMMUNEO Therapeutics GmbH, priority 2022, published 2026).

Columns and labels:
[1] = tested on: PBMCs from a healthy adult human; assay: IFNγ ELISpot analysis of antigen peptides ex vivo; format: cell-based; conditions: for Activation*10 (IFNγ activity, activation values times 10): calculated by formula, neg 36.0; for Cells/100,000 cells (positive counts per 100,000 cells): cells pre-stimulated with peptide pool, 267,000 cells per well, duplicates; for Effectiveness of immunization (product of number of activated cells and activation): FIG. 11, descending order
[2] = tested on: T cell CD4 and CD8 activity; assay: Antigen response in mice, second trial (immunization, intracellular cytokine staining); format: in vivo, wild-type mice (C57BL/6); conditions: mice immunized with Pep2 C, restimulation with peptides (FIG. 9)
Protocol: 3 Groups of wild-type mice (C57BL/6) consisting of 5 mice (group 2,3) and 3 mice for the negative control (group 1) were administered different vaccine candidates (as following) for evaluation.
The Groups were administered the following compositions: • a) Group 1 (no vac.): no vaccine • b) Group 2 (Pep2 C): peptide mix (60 μg per single peptide, 12 peptides selected from SEQ ID NOs: 43, 44, 46, 47, 50-58) with c-di-AMP (10 mg/dose) adjuvant • c) Group 3 (mRNA): Comirnaty mRNA vaccine (5 μg/dose)
The antigen peptide formulations in accordance with the present invention were administered subcutaneous (SC) three times in two-week intervals (see FIG. 7), the mRNA vaccine was administered intramuscular (IM) two times in a four-week interval (Group 3). After five weeks the immune response was determined, T cell CD8 activity was examined by cytokines secreted in response to stimulation with the peptide antigens were determined by intracellular cytokine staining (ICS) with Intracellular cytokine staining with IFNγ and TNFγ. Specific antibodies.

[3] = tested on: peripheral blood mononuclear cells (PBMCs) from a human donor; assay: Intracellular Cytokine Staining (ICS) of antigen polypeptides; format: cell-based
Protocol: An Intracellular Cytokine Staining (ICS) assay to assess the T-cell responses induced by an antigen polypeptide in the spirit of the current invention was carried out following this experimental procedure. The experimental procedure involved several sequential steps to prepare and analyze freshly harvested peripheral blood mononuclear cells (PBMCs) from a human donor.
PBMCs were cultured in RPMI-1640 medium supplemented with 10% fetal bovine serum, penicillin-streptomycin, and L-glutamine at 37° C. with 5% CO2. After culture, the cells were divided into different experimental groups. The cells were then stimulated with the antigen peptide vaccine or a control peptide, along with appropriate cytokines and co-stimulatory molecules to facilitate T cell activation. The antigen peptide was designed to effectively stimulate both CD4 and CD8 T-cell responses.
To inhibit cytokine secretion and promote intracellular cytokine accumulation, brefeldin A was added to the stimulated cells at a concentration of 10 μg/mL, and the cells were incubated overnight. Subsequently, the cells were harvested, and staining was performed. Fluorescently labeled antibodies, including AlexaFluor 488-conjugated anti-IFNγ and APC-H7-conjugated anti-CD4, as well as Pacific Orange-conjugated anti-CD8 and a cell surface marker were added to the cells and incubated.
To facilitate antibody access to intracellular molecules, the cells were fixed and permeabilized using a fixation solution and permeabilization buffer. Intracellular cytokine staining was carried out by adding fluorescently labeled antibodies against IFNγ or other cytokines of interest. Following staining, flow cytometry analysis was performed by gating on CD4 and CD8 T cells to determine the percentage of cytokine-producing cells.
The obtained data were analyzed to compare the percentage of cytokine-producing CD4 and CD8 T cells stimulated with the antigen polypeptides to that of unstimulated CD4 and CD8 T cells or T cells stimulated with a control peptide. […]

| Sequence | Activation*10 (IFNγ activity, activation values times 10) [1] | Cells/100,000 cells (positive counts per 100,000 cells) ([1]; neg 25.8) | Effectiveness of immunization (product of number of activated cells and activation) [1] | other results |
| --- | --- | --- | --- | --- |
| AATKMSECVLGQSKRVD [Pep-9] | 38.0 | 22.1 Cells/100,000 cells |  |  |
| AISSVLNDILSRLDKVE [Pep-10] | 34.8 | 17.2 Cells/100,000 cells |  |  |
| DGYFKIYSKHTPINLV [Pep-17] | 99.6 | 249.1 Cells/100,000 cells | most effective | Cells/100,000 cells (positive counts per 100,000 cells) ([1]; neg 25.8, listed as Peptide 17): especially high counts |
| GDCLGDIAARDLIC [Pep-14] |  | 262.2 Cells/100,000 cells | most effective | Cells/100,000 cells (positive counts per 100,000 cells) ([1]; neg 25.8, listed as Peptide 14): especially high counts |
| GKEDLKFPRGQGVPINTNSS [Pep-18] | 10.1 | 24.3 Cells/100,000 cells |  |  |
| IRAAEIRASANLAATKM [Pep-21] |  | 50.9 Cells/100,000 cells | most effective |  |
| KDLSPRWYFYYLGTG [Pep-20] | 93.3 | 31.5 Cells/100,000 cells |  |  |
| LGKYEQYIKWPWYIWLGFIAG [Pep-15] | 36.5 | 16.9 Cells/100,000 cells |  |  |
| MAYRFNGIGVTQNVLYE [Pep-7] |  | 41.9 Cells/100,000 cells | most effective | Single peptide-specific CD8 T cell reaction [2]: caused a CD8 T cell reaction; CD8 / CD8+ response in ICS ([3]; FIG. 5, FIG. 9, groups of Table E7-1): strong CD8+ response; CD4 response in ICS ([3]; FIG. 8, groups of Table E7-1): some CD4 response; Individual activities in the ICS study ([3]; single peptides): high individual activities |
| RQGTDYKHWPQIAQF (synthetic peptide used as antigen comprising at least one HLA antigen peptide) [Pep-19] | 36.6 | 21.3 Cells/100,000 cells |  |  |
| TFEYVSQPFLMDLEGKQ [Pep-13] | 53.1 | 322.8 Cells/100,000 cells | most effective | Cells/100,000 cells (positive counts per 100,000 cells) ([1]; neg 25.8, listed as Peptide 13): especially high counts |
